What follows are compounds tested against T1, full length human recombinant glucocorticoid receptor (Homo sapiens, UniProt P04150) (assay: Glucocorticoid Receptor Binding Assay (Glucocorticoid Receptor Competitor Assay far red kit, fluorescence polarization)). Settings: competition with fluorescent GR ligand Fluormone GS Far Red, 3 hours at 22° C., pH 7.4; Ki calculated from IC50 by Cheng-Prusoff.
T1 construct: It contains some partially purified full length human recombinant glucocorticoid receptor; purchased Panvera/Invitrogen PV4302
T1 sequence (P04150 1-777): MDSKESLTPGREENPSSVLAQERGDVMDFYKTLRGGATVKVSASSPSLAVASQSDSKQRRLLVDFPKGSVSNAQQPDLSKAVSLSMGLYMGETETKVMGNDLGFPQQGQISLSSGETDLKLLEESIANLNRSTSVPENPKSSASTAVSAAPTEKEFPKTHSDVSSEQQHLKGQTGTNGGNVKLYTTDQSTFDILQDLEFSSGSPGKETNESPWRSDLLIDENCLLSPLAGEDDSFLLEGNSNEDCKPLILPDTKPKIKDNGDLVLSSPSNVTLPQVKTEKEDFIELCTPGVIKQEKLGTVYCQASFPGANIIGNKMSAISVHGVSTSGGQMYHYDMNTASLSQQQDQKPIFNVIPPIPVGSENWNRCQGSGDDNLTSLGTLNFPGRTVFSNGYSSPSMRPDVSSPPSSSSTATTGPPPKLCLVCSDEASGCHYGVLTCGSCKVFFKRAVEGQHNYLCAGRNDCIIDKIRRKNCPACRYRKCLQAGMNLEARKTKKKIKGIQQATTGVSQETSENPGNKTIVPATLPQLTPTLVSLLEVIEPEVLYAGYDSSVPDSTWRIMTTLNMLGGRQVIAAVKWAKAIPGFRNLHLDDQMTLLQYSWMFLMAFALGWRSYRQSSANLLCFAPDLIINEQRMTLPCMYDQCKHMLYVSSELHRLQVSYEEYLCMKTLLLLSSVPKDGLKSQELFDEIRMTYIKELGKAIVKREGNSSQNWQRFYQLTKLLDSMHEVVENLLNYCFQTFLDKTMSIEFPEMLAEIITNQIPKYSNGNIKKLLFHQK
In short: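 Fluorescence polarization competition with partially purified full-length human recombinant GR, stabilizing peptide and Fluormone GS Far Red tracer in screening buffer pH 7.4; 3 hours at 22° C in the dark, read at 610–660 nm. IC50 from sigmoidal fit; Ki by Cheng-Prusoff.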

Structure (SMILES)	Ki
C[C@H](c1ccc(Oc2ncc(C(=O)O)cc2Cl)cc1Cl)[C@@](O)(c1ccc2c(c1)OCC(=O)N2C)C(F)(F)F (stereo in doubt) [Example 165, 5-Chloro-6-{3-chloro-4-[3,3,3-trifluoro-2-hydroxy-1-methyl-2-(4-methyl-3-oxo-3,4-dihydro-2H-benzo[1,4]oxazin-7-yl)-propyl]-phenoxy}-nicotinic acid]	0.9 nM
C[C@H](c1ccc(Oc2ccc(C(=O)O)c(F)c2)cc1Cl)[C@@](O)(c1ccc2c(c1)OCC(=O)N2C)C(F)(F)F (stereo in doubt) [Example 166, 4-{3-Chloro-4-[3,3,3-trifluoro-2-hydroxy-1-methyl-2-(4-methyl-3-oxo-3,4-dihydro-2H-benzo[1,4]oxazin-7-yl)-propyl]phenoxy}-2-fluoro-benzoic acid]	2.7 nM
C[C@H](c1ccc(-c2ccc(C(=O)O)c(F)c2)cc1Cl)[C@@](O)(c1ccc2c(c1)N(C)CCO2)C(F)(F)F (stereo in doubt) [Example 170, 3′-Chloro-3-fluoro-4′-[3,3,3-trifluoro-2-hydroxy-1-methyl-2-(4-methyl-3,4-dihydro-2H-benzo[1,4]oxazin-6-yl)-propyl]-biphenyl-4-carboxylic acid]	210 nM
COc1ccc([C@@H](C)[C@@](O)(c2ccc3oc(=O)n(C)c3c2)C(F)(F)F)c(Cl)c1 (stereo in doubt) [Example 171, 5-[2-(2-Chloro-4-methoxy-phenyl)-1-hydroxy-1-trifluoromethyl-propyl]-3-methyl-3H-benzooxazol-2-one]	0.4 nM
C[C@H](c1ccc(Oc2ccc(C(=O)O)c(F)c2)cc1Cl)[C@@](O)(c1ccc2oc(=O)n(C)c2c1)C(F)(F)F (stereo in doubt) [Example 177, 4-{3-Chloro-4-[3,3,3-trifluoro-2-hydroxy-1-methyl-2-(3-methyl-2-oxo-2,3-dihydro-benzooxazol-5-yl)-propyl]-phenoxy}-2-fluoro-benzoic acid]	1.3 nM
C[C@H](c1ccc(-c2cccc(C(=O)O)c2)cc1Cl)[C@@](O)(c1ccc2c(c1)oc(=O)n2C)C(F)(F)F (stereo in doubt) [Example 179, 3′-Chloro-4′-[3,3,3-trifluoro-2-hydroxy-1-methyl-2-(3-methyl-2-oxo-2,3-dihydro-benzooxazol-6-yl)-propyl]-biphenyl-3-carboxylic acid]	13.3 nM
C[C@H](c1ccc(Oc2ncc(C(=O)O)cc2Cl)cc1Cl)[C@@](O)(c1ccc2oc(=O)n(C)c2c1)C(F)(F)F (stereo in doubt) [Example 180, 5-Chloro-6-{3-chloro-4-[3,3,3-trifluoro-2-hydroxy-1-methyl-2-(3-methyl-2-oxo-2,3-dihydro-benzooxazol-5-yl)-propyl]-phenoxy}-nicotinic acid]	1 nM
C[C@H](c1ccc(Oc2ccc(C(=O)O)cn2)cc1Cl)[C@@](O)(c1ccc2oc(=O)n(C)c2c1)C(F)(F)F (stereo in doubt) [Example 181, 6-{3-Chloro-4-[3,3,3-trifluoro-2-hydroxy-1-methyl-2-(3-methyl-2-oxo-2,3-dihydro-benzooxazol-5-yl)-propyl]-phenoxy}-nicotinic acid]	0.5 nM
COC(=O)c1ccc(Oc2ccc([C@@H](C)[C@@](O)(c3ccc4oc(=O)n(C)c4c3)C(F)(F)F)c(Cl)c2)nc1Cl (stereo in doubt) [Example 182, 2-Chloro-6-{3-chloro-4-[3,3,3-trifluoro-2-hydroxy-1-methyl-2-(3-methyl-2-oxo-2,3-dihydro-benzooxazol-5-yl)-propyl]-phenoxy}-nicotinic acid methyl ester]	3.3 nM
COc1ccc(Cl)c([C@@H](C)[C@@](O)(c2ccc3oc(=O)n(C)c3c2)C(F)(F)F)c1 (stereo in doubt) [Example 192, 5-[2-(2-Chloro-5-methoxy-phenyl)-1-hydroxy-1-trifluoromethyl-propyl]-3-methyl-3H-benzooxazol-2-one]	0.8 nM
C[C@H](c1ccc(-c2ccnnc2)cc1Cl)[C@@](O)(c1ccc2oc(=O)n(C)c2c1)C(F)(F)F (stereo in doubt) [Example 195, 5-[2-(2-Chloro-4-pyridazin-4-yl-phenyl)-1-hydroxy-1-trifluoromethyl-propyl]-3-methyl-3H-benzooxazol-2-one]	0.8 nM
C[C@H](c1ccc(Oc2ncccn2)cc1Cl)[C@@](O)(c1ccc2oc(=O)n(C)c2c1)C(F)(F)F (stereo in doubt) [Example 196, 5-{2-[2-Chloro-4-(pyrimidin-2-yloxy)-phenyl]-1-hydroxy-1-trifluoromethyl-propyl}-3-methyl-3H-benzooxazol-2-one]	1.6 nM
C[C@H](c1cc(O)ccc1Cl)[C@@](O)(c1ccc2oc(=O)n(C)c2c1)C(F)(F)F (stereo in doubt) [Example 197, 5-[2-(2-Chloro-5-hydroxy-phenyl)-1-hydroxy-1-trifluoromethyl-propyl]-3-methyl-3H-benzooxazol-2-one]	5.8 nM

Results, then the compound that gave them:

Ki	Structure (SMILES)
4.5 nM	C[C@H](c1ccc(-c2ccc(C(=O)O)c(F)c2)cc1C(F)(F)F)[C@@](O)(c1ccc2oc(=O)n(C)c2c1)C(F)(F)F (stereo in doubt) [Example 200, 3-Fluoro-4′-[3,3,3-trifluoro-2-hydroxy-1-methyl-2-(3-methyl-2-oxo-2,3-dihydro-benzooxazol-5-yl)-propyl]-3′-trifluoromethyl-biphenyl-4-carboxylic acid]
2.5 nM	C[C@H](c1ccc(Oc2ccc(C(=O)O)cn2)cc1Cl)[C@@](O)(c1ccc2c(c1)N(C)C(=O)CO2)C(F)(F)F (stereo in doubt) [Example 205, 6-{3-Chloro-4-[3,3,3-trifluoro-2-hydroxy-1-methyl-2-(4-methyl-3-oxo-3,4-dihydro-2H-benzo[1,4]oxazin-6-yl)-propyl]-phenoxy}-nicotinic acid]
370 nM	C[C@H](c1ccc(OC(C)(C)C(=O)O)cc1Cl)[C@@](O)(c1ccc2c(c1)N(C)C(=O)CO2)C(F)(F)F (stereo in doubt) [Example 207, 2-{3-Chloro-4-[3,3,3-trifluoro-2-hydroxy-1-methyl-2-(4-methyl-3-oxo-3,4-dihydro-2H-benzo[1,4]oxazin-6-yl)-propyl]-phenoxy}-2-methyl-propionic acid]
0.8 nM	C[C@H](c1ccc(Oc2ccc(C(=O)O)c(Cl)n2)cc1Cl)[C@@](O)(c1ccc2c(c1)N(C)C(=O)CO2)C(F)(F)F (stereo in doubt) [Example 209, 2-Chloro-6-{3-chloro-4-[3,3,3-trifluoro-2-hydroxy-1-methyl-2-(4-methyl-3-oxo-3,4-dihydro-2H-benzo[1,4]oxazin-6-yl)-propyl]-phenoxy}-nicotinic acid]
1.2 nM	C[C@H](c1ccc(Oc2cc(Cl)c(C(=O)O)cn2)cc1Cl)[C@@](O)(c1ccc2c(c1)N(C)C(=O)CO2)C(F)(F)F (stereo in doubt) [Example 211, 4-Chloro-6-{3-chloro-4-[3,3,3-trifluoro-2-hydroxy-1-methyl-2-(4-methyl-3-oxo-3,4-dihydro-2H-benzo[1,4]oxazin-6-yl)-propyl]-phenoxy}-nicotinic acid]
1.4 nM	C[C@H](c1ccc(Oc2ccc(C(=O)O)c(C(F)(F)F)n2)cc1Cl)[C@@](O)(c1ccc2c(c1)N(C)C(=O)CO2)C(F)(F)F (stereo in doubt) [Example 215, 6-{3-Chloro-4-[3,3,3-trifluoro-2-hydroxy-1-methyl-2-(4-methyl-3-oxo-3,4-dihydro-2H-benzo[1,4]oxazin-6-yl)-propyl]-phenoxy}-2-trifluoromethyl-nicotinic acid]
3.9 nM	CCOC(=O)C(C)(C)Oc1ccc([C@@H](C)[C@@](O)(c2ccc3oc(=O)n(C)c3c2)C(F)(F)F)c(Cl)c1 (stereo in doubt) [Example 229, 2-{3-Chloro-4-[3,3,3-trifluoro-2-hydroxy-1-methyl-2-(3-methyl-2-oxo-2,3-dihydro-benzooxazol-5-yl)-propyl]-phenoxy}-2-methyl-propionic acid ethyl ester]
35.3 nM	C[C@H](c1ccc(OC(C)(C)C(=O)O)cc1Cl)[C@@](O)(c1ccc2oc(=O)n(C)c2c1)C(F)(F)F (stereo in doubt) [Example 230, 2-{3-Chloro-4-[3,3,3-trifluoro-2-hydroxy-1-methyl-2-(3-methyl-2-oxo-2,3-dihydro-benzooxazol-5-yl)-propyl]-phenoxy}-2-methyl-propionic acid]
6.9 nM	C[C@H](c1ccc(C(=O)NCC(=O)OC(C)(C)C)cc1Cl)[C@@](O)(c1ccc2oc(=O)n(C)c2c1)C(F)(F)F (stereo in doubt) [Example 231, {3-Chloro-4-[3,3,3-trifluoro-2-hydroxy-1-methyl-2-(3-methyl-2-oxo-2,3-dihydrobenzooxazol-5-yl)-propyl]-benzoylamino}-acetic acid tert-butyl ester]
